Reference: article PMC7349657, “Efficient Targeted Degradation via Reversible and Irreversible Covalent PROTACs” (Journal of the American Chemical Society, 2020)
Values joined by “and” are separate entries in the source; they are usually repeats but may differ in a detail not shown here. Equal values may be shown once.

Tests used:
BTK = BTK (Homo sapiens, UniProt Q06187); experiment: BTK degradation in Mino cells, dose-response Western blot; assay type: cell-based; parameters: endogenous in cells; host or cells: Mino (ATCC CRL-3000), Ramos (ATCC CRL-1596), K562 (NCI-60); details: 24 h; for DC50: second-order polynomial fit; for Dmax: MINO, read-out: Dmax (maximal degradation)
Method: We evaluated the ability of the compounds to induce degradation of BTK in human cell lines. We incubated Mino cells with the compounds and followed BTK levels after 24 h by Western blot (Figure 2, Supporting Figure 2). […] The irreversible acrylamides IR-1 and IR-2 and the cyanoacrylamide RC-3 followed closely with DC50’s under 10 nM and Dmax near 90%. […] We conducted metabolomics studies to estimate if cellular penetration and stability may contribute to the relative potencies (Supporting Table 2). NC-1 and RC-3 reached an effective concentration that was ∼2 times higher than IR-2 and ∼10 times higher than RC-2. Therefore, the lower potency of RC-2 can at least in part be explained by lower permeability or stability.
Figure 2 Efficient BTK degradation in cells. (A) Western blot evaluation of BTK levels in Mino cells in response to various concentrations of RC-2, IR-2, NC-1, and RC-3, after 24 h of incubation. (B) Quantification of BTK levels in (A) by normalization to the β-actin house-keeping gene in Mino cells. DC50 and Dmax were calculated by fitting the data to a second-order polynomial using Prism software. (C) Summary of the DC50 and Dmax values for the PROTACs in Mino cells described in (A) and Supporting Figure 2. TEXT PRINTED IN THE PICTURE: (C) NC-1: DC50 (nM): 2.2; Dmax (%): 97 | (C) IR-1: DC50 (nM): 8.6; Dmax (%): 91 | (C) IR-2: DC50 (nM): 1.9; Dmax (%): 88 | (C) RC-1: DC50 (nM): 10; Dmax (%): 68 | (C) RC-2: DC50 (nM): 35; Dmax (%): 66 | (C) RC-3: DC50 (nM): 6; Dmax (%): 85
Ramos (ATCC, CRL-1596), Mino (ATCC, CRL-3000), or K562 (NCI-60) cell lines were counted and diluted to 10^6 cell/mL, using 1 mL per well in a 24-well plate, and U2OS (ATCC HTB-96) cells overexpressing human BTK WT or C481S mutant were grown using 2 mL in a six-well plate (see Supporting Information). Cells were incubated with 1% DMSO or compound in indicated concentrations for 24 h unless indicated differently, or cells were left untreated. Lysates were prepared as previously described,[29] and samples were measured for total protein quantification by bicinchoninic acid (BCA) assay (#23225 ThermoFisher Scientific) supplemented with 4× loading buffer including 20 mM DTT, heated to 70 °C for 10 min, loaded into 4% SDS-PAGE gel, run for 45 min at 140 mV, then transferred into a nitrocellulose membrane (Biorad) using a Trans-Blot Turbo transfer system (Biorad). The membrane was stained with Ponceau (Sigma) to validate transfer for 10 min in gentle agitation then destained for 1 h with MQ water. The membrane was blocked with Licor blocking buffer (LIC927-70001) for 1 h, washed three times for 5 min with TBS-T, incubated with primary antibody BTK (D3H5) rabbit mAb (CST; 8547 S) overnight (16 h) at 4 °C, washed three times for 5 min with TBS-T, and incubated with primary antibody against β-actin (CST; 3700) for 1 h at 25 °C. Membrane was washed three times for 5 min with TBS-T, incubated with fluorescent secondary antibodies anti-mouse IgG Alexa Fluor 647 (CST: 4410S) and anti-rabbit-IgG IRDye 800(LICOR: 926-32211) for 1 h, then washed three times for 5 min with TBS-T, dried, and immediately imaged and analyzed using Licor Odyssey CLx. Prism (GraphPad) software was used to calculate degradation levels. We used second-order polynomial fits to estimate DC50 and Dmax values.

C481S BTK = experiment: In vitro kinase activity assay, C481S BTK (Nanosyn); details: 2 h preincubation

BTK, sequence (Q06187 whole entry): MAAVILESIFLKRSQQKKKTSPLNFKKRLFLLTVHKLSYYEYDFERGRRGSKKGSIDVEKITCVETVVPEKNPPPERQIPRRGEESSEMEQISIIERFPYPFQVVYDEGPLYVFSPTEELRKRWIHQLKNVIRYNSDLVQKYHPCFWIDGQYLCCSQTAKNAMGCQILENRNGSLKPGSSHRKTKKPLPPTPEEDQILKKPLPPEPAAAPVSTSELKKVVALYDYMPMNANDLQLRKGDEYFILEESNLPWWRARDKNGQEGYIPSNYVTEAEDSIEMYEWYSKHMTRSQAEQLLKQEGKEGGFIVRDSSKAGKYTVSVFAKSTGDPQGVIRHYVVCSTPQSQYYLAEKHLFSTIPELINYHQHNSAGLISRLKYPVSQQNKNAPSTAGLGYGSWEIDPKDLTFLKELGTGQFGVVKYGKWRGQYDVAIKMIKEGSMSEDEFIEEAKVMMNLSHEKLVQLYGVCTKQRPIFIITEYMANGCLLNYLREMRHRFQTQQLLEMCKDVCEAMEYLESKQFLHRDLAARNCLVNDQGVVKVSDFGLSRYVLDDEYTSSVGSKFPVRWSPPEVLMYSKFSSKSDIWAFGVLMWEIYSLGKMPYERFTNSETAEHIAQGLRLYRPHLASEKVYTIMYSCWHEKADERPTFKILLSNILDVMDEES

Dmax (maximal degradation) (BTK)	DC50 (BTK)	Dmax (BTK)	fold reduction in potency, C481S vs wild-type BTK (C481S BTK)	Compound
91%	< 10 nM and 8.6 nM	~90%	–	Nc1ncnc2c1c(-c1ccc(Oc3ccccc3)cc1)nn2C1CCCN(C(=O)C=CCOCCOCCOCCOCCOCCOc2cccc3c2C(=O)N(C2CCC(=O)NC2=O)C3=O)C1 (stereo not drawn) [IR-1]
88%	–	~90%	only slight sensitivity to the mutation	Nc1ncnc2c1c(-c1ccc(Oc3ccccc3)cc1)nn2C1CCCN(C(=O)C=CCCCCOCCOCCOCCOCCOc2cccc3c2C(=O)N(C2CCC(=O)NC2=O)C3=O)C1 (stereo not drawn) [IR-2]
–	2.2 nM	97%	< 2 fold	Nc1ncnc2c1c(-c1ccc(Oc3ccccc3)cc1)nn2C1CCCN(C(=O)CCCCCCOCCOCCOCCOCCOc2cccc3c2C(=O)N(C2CCC(=O)NC2=O)C3=O)C1 (stereo not drawn) [NC-1]
–	–	66%	68 fold	N#CC(=CCCCCOCCOCCOCCOCCOc1cccc2c1C(=O)N(C1CCC(=O)NC1=O)C2=O)C(=O)N1CCCC(n2nc(-c3ccc(Oc4ccccc4)cc3)c3c(N)ncnc32)C1 (stereo not drawn) [RC-2]
85%	< 10 nM and 6 nM	~90%	> 1000 fold	CC(C)(C=C(C#N)C(=O)N1CCCC(n2nc(-c3ccc(Oc4ccccc4)cc3)c3c(N)ncnc32)C1)CCCOCCOCCOCCOCCOc1cccc2c1C(=O)N(C1CCC(=O)NC1=O)C2=O (stereo not drawn) [RC-3]
